Test results published in PubChem BioAssay AID248 (DTP/NCI, 2004).
“And” between values parts separate entries of the source, which are not always exact repeats. Equal entries are not always repeated. Toxic doses and inconclusive results are not listed. Cut-off read from the data, not from the text of the source: active = T/C of 150% or more; inactive = T/C below 125%.

System: L1210 leukemia ip in BDF1 mice, survival T/C
Assay: NCI In Vivo Anticancer Drug Screen. Data for tumor model L1210 Leukemia (intraperitoneal) in B6D2F1 (BDF1) mice
Conditions: endpoint: mean survival time, higher = longer survival
Outline: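 Survival endpoint. Drug-treated group vs vehicle group, expressed as T divided by C. Tumor passaged by transplantation.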

[1] = dose: 100.0 mg/kg/injection, schedule: Q01DX009 (ip), vehicle: saline
[2] = dose: 100.0 mg/kg/injection, schedule: Q04DX003 (ip), vehicle: saline with Tween-80
[3] = dose: 200.0 mg/kg/injection, schedule: Q01DX001 (ip), vehicle: saline
[4] = dose: 200.0 mg/kg/injection, schedule: Q01DX009 (ip), vehicle: saline
[5] = dose: 200.0 mg/kg/injection, schedule: Q04DX003 (ip), vehicle: saline with Tween-80
[6] = dose: 400.0 mg/kg/injection, schedule: Q01DX001 (ip), vehicle: saline
[7] = dose: 400.0 mg/kg/injection, schedule: Q01DX009 (ip), vehicle: saline
[8] = dose: 400.0 mg/kg/injection, schedule: Q04DX003 (ip), vehicle: saline with Tween-80
[9] = dose: 25.0 mg/kg/injection, schedule: Q01DX009 (ip), vehicle: Klucel (hydroxypropylcellulose) (HPC)
[10] = dose: 50.0 mg/kg/injection, schedule: Q01DX009 (ip), vehicle: Klucel (hydroxypropylcellulose) (HPC)
[11] = dose: 100.0 mg/kg/injection, schedule: Q01DX009 (ip), vehicle: Klucel (hydroxypropylcellulose) (HPC)
[12] = dose: 100.0 mg/kg/injection, schedule: Q01DX001 (ip), vehicle: carboxymethylcellulose (CMC)
[13] = dose: 200.0 mg/kg/injection, schedule: Q01DX001 (ip), vehicle: carboxymethylcellulose (CMC)
[14] = dose: 400.0 mg/kg/injection, schedule: Q01DX001 (ip), vehicle: carboxymethylcellulose (CMC)
[15] = dose: 100.0 mg/kg/injection, schedule: Q01DX001 (ip), vehicle: saline
[16] = dose: 200.0 mg/kg/injection, schedule: Q01DX009 (ip), vehicle: Klucel (hydroxypropylcellulose) (HPC)
[17] = dose: 400.0 mg/kg/injection, schedule: Q01DX009 (ip), vehicle: Klucel (hydroxypropylcellulose) (HPC)
[18] = dose: 25.0 mg/kg/injection, schedule: Q04DX003 (ip), vehicle: Klucel (hydroxypropylcellulose) (HPC)
[19] = dose: 50.0 mg/kg/injection, schedule: Q04DX003 (ip), vehicle: Klucel (hydroxypropylcellulose) (HPC)
[20] = dose: 100.0 mg/kg/injection, schedule: Q04DX003 (ip), vehicle: Klucel (hydroxypropylcellulose) (HPC)

Measured: T/C

COc1ccc(/C=N/NC(N)=S)cc1
inactive: dose: 32.0 mg/kg/injection, schedule: Q01DX009 (ip), vehicle: saline 101 % of control and 92 % of control | dose: 32.0 mg/kg/injection, schedule: Q01DX010 (ip), vehicle: saline 97 % of control and 91 % of control | dose: 64.0 mg/kg/injection, schedule: Q01DX009 (ip), vehicle: saline 98 % of control and 100 % of control | dose: 64.0 mg/kg/injection, schedule: Q01DX010 (ip), vehicle: saline 96 % of control and 91 % of control | dose: 64.0 mg/kg/injection, schedule: Q01DX010 (iv), vehicle: saline 92 % of control | [1] 104 % of control | [2] 95 % of control | dose: 128.0 mg/kg/injection, schedule: Q01DX009 (ip), vehicle: saline 97 % of control and 102 % of control | dose: 128.0 mg/kg/injection, schedule: Q01DX010 (ip), vehicle: saline 94 % of control and 95 % of control | dose: 128.0 mg/kg/injection, schedule: Q01DX010 (iv), vehicle: saline 92 % of control | [3] 94 % of control | dose: 200.0 mg/kg/injection, schedule: Q01DX009 (ip), vehicle: acetone 95 % of control | [4] 100 % of control | [5] 95 % of control | dose: 256.0 mg/kg/injection, schedule: Q01DX009 (ip), vehicle: saline 101 % of control and 109 % of control | dose: 256.0 mg/kg/injection, schedule: Q01DX010 (ip), vehicle: saline 97 % of control and 90 % of control | dose: 256.0 mg/kg/injection, schedule: Q01DX010 (iv), vehicle: saline 102 % of control | [6] 100 % of control | dose: 400.0 mg/kg/injection, schedule: Q01DX009 (ip), vehicle: acetone 88 % of control | [7] 98 % of control | [8] 102 % of control | dose: 800.0 mg/kg/injection, schedule: Q01DX001 (ip), vehicle: saline 96 % of control

[Se]=P(N1CCCCC1)(N1CCCCC1)N1CCCCC1
inactive: [9] 98 % of control | [10] 104 % of control | [11] 87 % of control

COc1cccc(C2CCCCC2OS(C)(=O)=O)c1 (centres undefined)
inactive: [12] 97 % of control | [13] 92 % of control | [14] 95 % of control

CN(N=O)c1ccccc1
inactive: dose: 50.0 mg/kg/injection, schedule: Q01DX001 (ip), vehicle: saline 93 % of control | [15] 93 % of control | [3] 98 % of control | [6] 102 % of control

CC(=O)c1cccc(NC(=O)OCC2CC3C=CC2C3)c1 (centres undefined)
inactive: [11] 112 % of control | [16] 104 % of control | [17] 103 % of control

CCN(CC)c1ccc(N=Cc2cc(=O)n(C)c3ccccc23)cc1
inactive: [12] 101 % of control | [13] 90 % of control | [14] 88 % of control

O=C(COc1ccc(Cl)cc1)Nc1cccnc1
inactive: [9] 100 % of control | [18] 100 % of control | [10] 92 % of control | [19] 94 % of control | [20] 103 % of control

CN(C)CC/C=C1\c2ccccc2CCSc2ccccc21
inactive: [18] 100 % of control | [19] 100 % of control | [20] 98 % of control

[N-]=[N+]=[N-]
inactive: dose: 10.0 mg/kg/injection, schedule: Q01DX001 (ip), vehicle: saline 100 % of control | dose: 20.0 mg/kg/injection, schedule: Q01DX001 (ip), vehicle: saline 100 % of control

ClCCCCCCCCc1ccccc1
inactive: dose: 100.0 mg/kg/injection, schedule: Q01DX009 (ip), vehicle: saline sonified 105 % of control | dose: 100.0 mg/kg/injection, schedule: Q04DX003 (ip), vehicle: saline sonified 100 % of control | dose: 200.0 mg/kg/injection, schedule: Q01DX009 (ip), vehicle: saline sonified 102 % of control | dose: 200.0 mg/kg/injection, schedule: Q04DX003 (ip), vehicle: saline sonified 102 % of control | dose: 400.0 mg/kg/injection, schedule: Q01DX009 (ip), vehicle: saline sonified 107 % of control | dose: 400.0 mg/kg/injection, schedule: Q04DX003 (ip), vehicle: saline sonified 96 % of control

CCCNS(=O)(=O)c1cccc(C(N)=S)c1
inactive: dose: 100.0 mg/kg/injection, schedule: Q01DX001 (ip), vehicle: Klucel (hydroxypropylcellulose) (HPC) 101 % of control | dose: 200.0 mg/kg/injection, schedule: Q01DX001 (ip), vehicle: Klucel (hydroxypropylcellulose) (HPC) 100 % of control | dose: 400.0 mg/kg/injection, schedule: Q01DX001 (ip), vehicle: Klucel (hydroxypropylcellulose) (HPC) 103 % of control

C[C@]12CC[C@@H]3c4ccc(O)cc4CC[C@H]3[C@@H]1CC[C@@H]2O
inactive: dose: 500.0 mg/kg/injection, schedule: Q01DX Z (sc), vehicle: water 93 % of control | dose: 1000.0 mg/kg/injection, schedule: Q01DX Z (sc), vehicle: water 90 % of control

CC(=O)OCC1OC(OC(C)C)[CH]([Hg][S]Cc2ccccc2)C(OC(C)=O)C1OC(C)=O (centres undefined)
inactive: dose: 0.5 mg/kg/injection, schedule: Q01DX015 (ip), vehicle: carboxymethylcellulose (CMC) 102 % of control | dose: 1.0 mg/kg/injection, schedule: Q01DX015 (ip), vehicle: carboxymethylcellulose (CMC) 98 % of control | dose: 2.0 mg/kg/injection, schedule: Q01DX015 (ip), vehicle: carboxymethylcellulose (CMC) 104 % of control | dose: 4.0 mg/kg/injection, schedule: Q01DX015 (ip), vehicle: carboxymethylcellulose (CMC) 96 % of control and 108 % of control | dose: 8.0 mg/kg/injection, schedule: Q01DX015 (ip), vehicle: carboxymethylcellulose (CMC) 88 % of control

Cc1ccc(NC(=S)NCCO)cc1C
inactive: [2] 98 % of control | [5] 98 % of control | [8] 97 % of control

C/C(=C\COC1CCCCO1)CCC1OC1(C)C (centres undefined)
inactive: [15] 103 % of control | [1] 108 % of control | [3] 100 % of control | [4] 98 % of control | [6] 100 % of control | [7] 101 % of control

COc1ccc(C)cc1NC(=S)NC(=O)c1cc([N+](=O)[O-])cc([N+](=O)[O-])c1
inactive: [11] 97 % of control | [20] 95 % of control | [16] 90 % of control | dose: 200.0 mg/kg/injection, schedule: Q04DX003 (ip), vehicle: Klucel (hydroxypropylcellulose) (HPC) 100 % of control | [17] 95 % of control | dose: 400.0 mg/kg/injection, schedule: Q04DX003 (ip), vehicle: Klucel (hydroxypropylcellulose) (HPC) 97 % of control

CCCCCCC1CCC(CCCCCCCC(=O)N2CCN(C)CC2)C(C/C=C/CCCCCCCC(=O)N2CCN(C)CC2)C1CCCCC (centres undefined)
inactive: dose: 75.0 mg/kg/injection, schedule: Q01DX001 (ip), vehicle: saline 94 % of control | dose: 150.0 mg/kg/injection, schedule: Q01DX001 (ip), vehicle: saline 103 % of control | dose: 300.0 mg/kg/injection, schedule: Q01DX001 (ip), vehicle: saline 95 % of control

CCOc1ccc(Nc2nc(=O)[nH]c3ccccc23)cc1CN(CCCl)CCCl
inactive: dose: 25.0 mg/kg/injection, schedule: Q04DX002 (ip), vehicle: saline 104 % of control | dose: 50.0 mg/kg/injection, schedule: Q04DX002 (ip), vehicle: saline 100 % of control | dose: 100.0 mg/kg/injection, schedule: Q04DX002 (ip), vehicle: saline 111 % of control | dose: 200.0 mg/kg/injection, schedule: Q04DX002 (ip), vehicle: saline 95 % of control and 111 % of control | dose: 400.0 mg/kg/injection, schedule: Q04DX002 (ip), vehicle: saline 95 % of control

CC(=O)/C(N=Nc1ccccc1)=C(\C)O
inactive: dose: 50.0 mg/kg/injection, schedule: Q01DX001 (ip), vehicle: carboxymethylcellulose (CMC) 90 % of control | dose: 50.0 mg/kg/injection, schedule: Q01DX009 (sc), vehicle: olive oil, sesame oil, peanut oil 113 % of control | [12] 97 % of control | dose: 100.0 mg/kg/injection, schedule: Q01DX009 (sc), vehicle: olive oil, sesame oil, peanut oil 113 % of control | [13] 87 % of control | dose: 200.0 mg/kg/injection, schedule: Q01DX009 (sc), vehicle: olive oil, sesame oil, peanut oil 101 % of control | [14] 95 % of control
